Tests used:
Type in all cases: cell-based, mouse
[1] = system: Th2 cytokine and GATA3 mRNA; test: Quantitative RT-PCR, naive CD4+ T cells under Th2 conditions; details: 5 days
Method: (§1) C57BL/6 mice were purchased from Clea (Clea Japan, Inc., Tokyo, Japan). Total CD4^+ T cells isolated from mouse spleen were prepared using a FITC anti-mouse CD4 antibody (Cat#100510, RM4–5, BioLegend) and anti-FITC-microbeads (Cat#130-097-050, Miltenyi Biotec). Naive CD4^+ T cells (CD44^low, CD62L^high) were prepared using a MojoSort Mouse CD4 T cell Isolation Kit (Cat#480033), BioLegend). Biotinylated anti-CD44 (Cat#103004, IM7) and anti-CD25 antibodies (Cat#102004, PC61) were purchased from BioLegend. CD4^+ T cells (7.5 × 10^5) were stimulated using immobilized anti-TCR-β mAb (3 µg/mL, H57–597, BioLegend) plus an anti-CD28 mAb (1.0 µg/mL, cat#40–0281, TONBO Biosciences) for 2 days, and then, the cells were further expanded under similar conditions for an additional 3 days. IL-2 conditions: IL-2 (10 ng/mL, Pepro Tech); Th2 conditions: IL-2 (10 ng/mL, Pepro Tech), IL-4 (1 ng/mL, Pepro Tech), and anti-IFN-γ mAb (2.5 µg/mL, cat#40–731, TONBO Biosciences). Th1 conditions: IL-2 (10 ng/mL, Pepro Tech), IL-12 (1 ng/mL, Pepro Tech), and anti-IL-4 mAb (2.5 µg/mL, cat#40–731, TONBO Biosciences). The cultured cells were subjected to intracellular staining, ELISA assay, and RT-PCR. All animal experiments received approval from the Ehime University Administrative Panel for Animal Care. All animal care was conducted in accordance with the guidelines of Ehime University. […]

Th2 cell differentiation = test: Intracellular cytokine staining, total CD4+ T cells under IL-2 conditions; details: 30 µM, five days
Method: as §1, with “Biosciences).” for “Biosciences). Th1 conditions: IL-2 (10 ng/mL, Pepro Tech), IL-12 (1 ng/mL, Pepro Tech), and anti-IL-4 mAb (2.5 µg/mL, cat#40–731, TONBO Biosciences). The cultured cells were subjected to intracellular staining, ELISA assay, and RT-PCR. All animal experiments received approval from the Ehime University Administrative Panel for Animal Care. All animal care was conducted in accordance with the guidelines of Ehime University.”
The in vitro differentiated CD4^+ T cells were stimulated using an immobilized anti-TCR-β mAb (3 µg/ml, H57–597, BioLegend) for 6 h in the presence of monensin (2 µM). […] Flow cytometry was performed using a Gallios Flow Cytometer instrument (Beckman Coulter) and a FACS Caliber instrument (BD Biosciences) and the results were analysed using the FlowJo software program (Tree Star, Ashland, OR, USA). […]

GATA3 expression = test: Intracellular staining of GATA3, CD4+ T cells under IL-2 conditions; details: 30 µM, two days
Method: The in vitro differentiated CD4^+ T cells were stimulated using an immobilized anti-TCR-β mAb (3 µg/ml, H57–597, BioLegend) for 6 h in the presence of monensin (2 µM). The cells were fixed with 4% paraformaldehyde (Cat#163–20145, Wako) and permeabilized with permeabilization buffer (50 mM NaCl, 5 mM EDTA, 0.02% NaN3, and 0.5% Triton X-100). Then, the cells were stained using the following antibodies, anti-IL-4-PE (Cat#504103, BioLegend, 1:50), anti-IL-5-APC (Cat#504305, BioLegend, 1:50), anti-IL-13-PE (Cat#12–7133–41, eBiosience, 1:50), anti-IFN-γ-FITC (Cat#562019, BD Biosciences, 1:500), and anti-IL-2-APC (Cat#503809, BioLegend, 1:50). For the intracellular staining of Gata3, the Foxp3/Transcription Factor Staining Buffer Kit (cat#TNB-0607, TONBO) was used according to the manufacturer’s protocol. Flow cytometry was performed using a Gallios Flow Cytometer instrument (Beckman Coulter) and a FACS Caliber instrument (BD Biosciences) and the results were analysed using the FlowJo software program (Tree Star, Ashland, OR, USA).
(D) Intracellular staining of GATA3 in CD4+ T cells stimulated with immobilized anti-TCRβ mAb plus anti-CD28 mAb under IL-2 conditions in the presence or absence of pyrrothiogatain (30 µM) for two days.

[2] = system: GATA3 binding to Th2 cytokine gene locus; test: Chromatin immunoprecipitation with anti-GATA3 antibody in Th2 cells; details: naive CD4+ T cells, Th2 conditions, 80 µM, 2 days
Method: GATA3 has been reported to bind to Th2 cytokine gene locus, such as IL-4 VA enhancer, IL-4 intron enhancer, conserved Gata3-response element (CGRE)[26] and IL-5 promoter[27] regions in Th2 cells. We investigated whether pyrrothiogatain inhibited GATA3 binding to Th2 cytokine gene locus. Naive CD4^+ T cells were cultured under Th2 conditions in the presence or absence of 80 µM pyrrothiogatain for 2 days, and then the cells were subjected to chromatin immunoprecipitation with an anti-GATA3 antibody.
The Magna ChIP Chromatin Immunoprecipitation Kit was used for the ChIP assay according to the manufacturer’s protocol (Merck-Millipore). Anti-GATA3 antibody (Cat#AF2605, R&D systems) was used for chromatin immunoprecipitation. The specific primers for the Th2 cytokine gene locus and the Roche Universal probes were used as follows: the VA site in the IL-4 enhancer: 5′-[…]-3′ (forward), 5′-[…]-3′ (reverse), probe #4; IL-4 IE: 5′-[…]-3′ (forward), 5′-AAATCCGAAACTGA GGAGTGC-3′ (reverse), probe #75; CGRE: 5′-CTCTCCTGGTGGCGTGTT-3′ (forward), 5′-CTTTGCGCACCCTTGAAC-3′ (reverse), probe #53; and IL-5p: 5′-[…]-3′ (forward), 5′-[…]-3′ (reverse), probe #43;

`Cc1ccc(C)n1-c1ccsc1C(=O)O` [Pyrrothiogatain, 3-(2,5-dimethyl-1H-pyrrol-1-yl)thiophene-2-carboxylic acid] was tested, and the “mRNA expression of IL-4, IL-5 and IL-13 (RT-qPCR)” value ([1]; 30 and 80 µM) was “Decreased”, the “Expression of GATA3, mRNA level” value [1] was “not influenced” and the “Generation of IL-4-, IL-5-, and IL-13-producing cells” value (Th2 cell differentiation) was “repressed”. For the same compound, the “Number of Th1 cells producing IFN-γ” value (Th2 cell differentiation) was “increased”, the “Expression of GATA3, protein level” value (GATA3 expression) was “not influenced” and the “GATA3 binding to the IL-4 VA enhancer, IL-4 intron enhancer, CGRE and IL-5 promoter regions” value [2] was “repressed”.

From publication PMC6874683, “Pyrrothiogatain acts as an inhibitor of GATA family proteins and inhibits Th2 cell differentiation in vitro” (Scientific Reports, 2019)
